Results: paper PMC11596857 (Molecules, 2024)
Like-named read-outs stand apart in the source and are kept apart here.

Experiments:
[1] = molecular target: T1, proline utilization A (SmPutA) (Sinorhizobium meliloti, UniProt F7X6I3); assay: X-ray crystal structure ([…] Å); Ki from GSALDH activity inhibition; format: biochemical
T1 construct: gene putA; bifunctional PRODH-GSALDH enzyme, His tag removed
T1 sequence (F7X6I3 1-1233): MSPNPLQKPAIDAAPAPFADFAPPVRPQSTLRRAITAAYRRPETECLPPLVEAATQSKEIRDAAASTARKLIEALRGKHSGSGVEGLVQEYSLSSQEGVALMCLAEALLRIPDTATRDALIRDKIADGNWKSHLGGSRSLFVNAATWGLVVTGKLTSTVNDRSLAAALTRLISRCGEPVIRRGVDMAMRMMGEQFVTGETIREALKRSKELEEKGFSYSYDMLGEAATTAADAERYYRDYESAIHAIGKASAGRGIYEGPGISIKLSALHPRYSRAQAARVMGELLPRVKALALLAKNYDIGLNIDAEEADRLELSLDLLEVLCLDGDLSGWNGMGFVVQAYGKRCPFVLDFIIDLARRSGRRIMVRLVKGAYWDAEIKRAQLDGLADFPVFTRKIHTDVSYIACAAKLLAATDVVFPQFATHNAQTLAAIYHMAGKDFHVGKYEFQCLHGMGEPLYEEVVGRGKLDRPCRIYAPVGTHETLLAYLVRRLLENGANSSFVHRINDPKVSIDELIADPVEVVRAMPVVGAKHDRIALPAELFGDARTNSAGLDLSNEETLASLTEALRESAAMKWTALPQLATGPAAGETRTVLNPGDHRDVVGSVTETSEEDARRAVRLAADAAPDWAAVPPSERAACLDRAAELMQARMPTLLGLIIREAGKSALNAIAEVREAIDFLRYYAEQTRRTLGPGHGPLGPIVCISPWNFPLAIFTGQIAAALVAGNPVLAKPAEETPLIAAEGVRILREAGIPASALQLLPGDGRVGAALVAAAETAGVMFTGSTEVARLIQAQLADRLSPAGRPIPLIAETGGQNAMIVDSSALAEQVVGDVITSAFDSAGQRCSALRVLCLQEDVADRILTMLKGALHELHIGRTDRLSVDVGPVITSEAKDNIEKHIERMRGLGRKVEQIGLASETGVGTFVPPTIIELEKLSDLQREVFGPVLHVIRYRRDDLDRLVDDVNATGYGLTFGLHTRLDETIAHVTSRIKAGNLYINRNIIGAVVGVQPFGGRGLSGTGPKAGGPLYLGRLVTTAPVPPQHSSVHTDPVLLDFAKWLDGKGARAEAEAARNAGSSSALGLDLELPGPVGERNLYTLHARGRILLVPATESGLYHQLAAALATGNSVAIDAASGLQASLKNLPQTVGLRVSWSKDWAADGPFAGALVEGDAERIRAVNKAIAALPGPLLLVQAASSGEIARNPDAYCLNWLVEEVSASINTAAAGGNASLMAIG

[2] = molecular target: T1, proline utilization A (SmPutA); assay: as above; format: biochemical; remark: listed apart in the source

Ki [2] | Structure (SMILES) | Ki [1]
– | O=C(O)C1CCCNC1 (racemic) [compound 13, 13] | 1500 µM
320 µM | O=C(O)c1cccc2c1OCCO2 [compound 7, 7] | –
